SMILES strings stand for the structures. Entries after “also recorded” stand apart in the source; their conditions may differ.

Data set [1] has as its system C3H10T1/2 embryonic fibroblasts. To be noted: cited from earlier work.
For data set [2], the system named is M2-10B4 (M2) marrow stromal cells. To be noted: cited from earlier work.
A short description of data set [3]: solubility of Oxy133 in water. Type of data set: physicochemical. From the text: The Oxy133 can be solubilized in a non-aqueous solvent, such as for example, ethanol and mixed into a solution or suspension. In some embodiments, the Oxy133 can be filtered by passing the Oxy133 and solvent through a filter (e.g., 0.22 microns). This will remove bacteria and other larger-size particulates out of the composition. The Oxy133 used in the composition can be micronized before it is mixed with solvents and other excipients. In various embodiments, the particle size of the Oxy133 can range from about 1 micron to 250 microns. In some embodiments, the Oxy133 can have a particle size of from about 5 microns to about 100 microns or from about 20 to 50 microns. The Oxy133 in the solution or suspension can be added to a slurry of biodegradable polymer and/or the ceramic particles, mixed and, then dried.

Another data set relates to Mesenchymal stem cells. The data set is described as follows: osteoblast differentiation of mesenchymal stem cells treated with Oxy133. Type of data set: cell-based. From the text: Thus, in some embodiments, a matrix comprising Oxy133 may be implanted into a spinal site with mesenchymal stem cells to induce bone growth through osteoblast differentiation. Periosteum tissue is one tissue type that is involved early during normal bone fracture repair process and can recruit various cell types (e.g., mesenchymal stem cells) and bone growth factors necessary for bone fracture repair. Thus, in some embodiments, periosteum tissue is utilized as a source of mesenchymal stem cells and/or growth factors in a demineralized bone composition.

Another data set concerns rat spines. Nature of the data set: rat two-level spine model, implants in the posterolateral space, radiographs and manual palpation. Type of data set: in vivo. Particulars: 4-week and 8-week time points. As to the method: FIG. 6 illustrates uses of a formulation of malleable implants having 20 mg of Oxy133 on each side of the implant, in accordance with the malleable implants described herein. […] A dry composition of a matrix containing Oxy133, collagen and ceramic as described herein was prepared and wetted with sterile water to be implanted in rat spines as shown in FIG. 6. The wetted matrix was cut in half with a razor blade to yield two halves. The two implants were molded into cylindrical shapes prior to insertion and were positioned bilaterally in the posterolateral space of each test subject. Each implant contained 20 mg Oxy133. Radiographs were taken roughly 10 minutes after the procedure, 4 weeks after the procedure, and 8 weeks after the procedure. […] Fusion was tested at 8-week sacrifice by manual palpation. […] A dry composition of a matrix containing Oxy133, collagen and ceramic as described herein was prepared and wetted with sterile water to be implanted in rat spines as shown in FIG. 6. The wetted matrix was cut in half with a razor blade to yield two halves. The two implants were molded into cylindrical shapes prior to insertion and were positioned bilaterally in the posterolateral space of each test subject. Each implant contained 125 mg Oxy133. Radiographs were taken roughly 10 minutes after the procedure, 4 weeks after the procedure, and 8 weeks after the procedure. […]

As to `CC(C)CCC[C@](C)(O)[C@H]1CC[C@H]2[C@@H]3CC=C4C[C@@H](O)CC[C@]4(C)[C@H]3CC[C@@]21C` [20(S)-hydroxycholesterol], the osteogenic differentiation entry in data set [1] and in data set [2] was “induce osteogenic differentiation” in each case.

Regarding `CCCCCC[C@](C)(O)[C@H]1CC[C@H]2[C@@H]3C[C@H](O)[C@H]4C[C@@H](O)CC[C@]4(C)[C@H]3CC[C@@]21C` [Oxy133, (3S,5S,6S,8R,9S,10R, 13S, 14S,17S) 17-((S)-2-hydroxyoctan-2-yl)-10,13-dimethylhexadecahydro-1H-cyclopenta[a]phenanthrene-3,6-diol], the solubility in water result in data set [3] is on record as “only slightly soluble or insoluble”. Also, in the data set with Mesenchymal stem cells, the osteoblast differentiation entry was “increased osteoblast differentiation”. The “bridging bone across the transverse processes of L3-L5 (radiographs)” value in the data set on rat spines (each implant 20 mg Oxy133) was “Bone growth in rat test subjects can be seen; also recorded: promoted bridging bone”; with rat spines (each implant 125 mg Oxy133) it was “promoted bridging bone; also recorded: Bone growth in rat test subjects can be seen”.

In the case of `CC(C)CC[C@@H](O)[C@@H](C)[C@H]1CC[C@H]2[C@@H]3CC=C4C[C@@H](O)CC[C@]4(C)[C@H]3CC[C@]12C` [22(R)-hydroxycholesterol], the osteogenic differentiation result in data set [1] and in data set [2] was “induce osteogenic differentiation” each time.

For the compound `CC(C)CC[C@H](O)[C@@H](C)[C@H]1CC[C@H]2[C@@H]3CC=C4C[C@@H](O)CC[C@]4(C)[C@H]3CC[C@]12C` [22(S)-, 22(S)-hydroxycholesterol], the osteogenic differentiation entry in data set [1] and in data set [2] was “induce osteogenic differentiation” throughout.

The values are drawn from US10987450B2, “Lyophilized moldable implants containing an oxysterol” (Warsaw Orthopedic, Inc., priority 2016, dated 2021).
